In patent publication US10760110B2, “Antibiotic testing and screening system” (priority 2017, dated 2020):
Like-named read-outs stand apart in the source and are kept apart here.

Tested on: K. pneumoniae NVT1001 strains with ESBL or AmpC β-lactamase plasmids
Experiment: Etest MIC of β-lactams, OmpK35/36 loss, ΔramR and/or extended-spectrum β-lactamase and AmpC β-lactamase (Table 8)
Format: cell-based, Klebsiella pneumoniae
Settings: for MIC: Klebsiella pneumoniae
Protocol: DNA fragments of the resistance genes along with their flanking regions were amplified from clinical plasmids via PCR with specific primer pairs. The resulting PCR fragments were digested and then cloned into the plasmid pACYC177 or pACYC184. The resulting plasmids were then transformed into K. pneumoniae strain NVT1001 via electroporation. The recombinant bacteria were plated onto LB agar plates containing kanamycin (50 mg/L) or chloramphenicol (50 mg/L), and the presence of the cloned gene was confirmed via PCR and DNA sequencing.
The MICs of antibiotics were determined using the Etest (Biodisk AB, Sweden) according to the manufacturer's instructions. The MICs from the Etest, which fall between standard two-fold dilutions, were rounded up to the next highest two-fold value. The MICs of ceftazidime and cefotaxime against K. pneumoniae NVT1001 harbouring the pACYC177 plasmid with blaOXA-48 were further determined using a broth microdilution test according to the recommendations of the CLSI,^25 and the results were interpreted according to the breakpoints established by the CLSI in 2017.^25 Meanwhile, due to the lack of CLSI breakpoints in 2016 and 2017, the results for cephalothin were interpreted according to the breakpoints established by the CLSI in 2015,^26 and the results for moxifloxacin were interpreted according to the breakpoints established by the EUCAST in 2017.^27

[1] = CMY-2 on pACYC177, WT (NVT1001), read-out: MIC
[2] = CMY-2 on pACYC177, Δ35 (ΔompK35 mutant)
[3] = CMY-2 on pACYC177, Δ35/36 (ΔompK35/36 mutant)
[4] = CMY-2 on pACYC177, Δ36 (ΔompK36 mutant)
[5] = CMY-2 on pACYC177, ΔramR mutant
[6] = CMY-2 on pACYC177, ΔramRΔ35 (ΔramRΔompK35 mutant)
[7] = CMY-2 on pACYC177, ΔramRΔ35/36 (ΔramRΔompK35/36 mutant)
[8] = CMY-2 on pACYC177, ΔramRΔ36 (ΔramRΔompK36 mutant)
[9] = CTX-M-14 on pACYC177, WT (NVT1001), read-out: MIC
[10] = CTX-M-14 on pACYC177, Δ35 (ΔompK35 mutant)
[11] = CTX-M-14 on pACYC177, Δ35/36 (ΔompK35/36 mutant)
[12] = CTX-M-14 on pACYC177, Δ36 (ΔompK36 mutant)
[13] = CTX-M-14 on pACYC177, ΔramR mutant
[14] = CTX-M-14 on pACYC177, ΔramRΔ35 (ΔramRΔompK35 mutant)
[15] = CTX-M-14 on pACYC177, ΔramRΔ35/36 (ΔramRΔompK35/36 mutant)
[16] = CTX-M-14 on pACYC177, ΔramRΔ36 (ΔramRΔompK36 mutant)
[17] = CTX-M-15 on pACYC177, WT (NVT1001), read-out: MIC
[18] = CTX-M-15 on pACYC177, Δ35 (ΔompK35 mutant)
[19] = CTX-M-15 on pACYC177, Δ35/36 (ΔompK35/36 mutant)
[20] = CTX-M-15 on pACYC177, Δ36 (ΔompK36 mutant)
[21] = CTX-M-15 on pACYC177, ΔramR mutant
[22] = CTX-M-15 on pACYC177, ΔramRΔ35 (ΔramRΔompK35 mutant)
[23] = CTX-M-15 on pACYC177, ΔramRΔ35/36 (ΔramRΔompK35/36 mutant)
[24] = CTX-M-15 on pACYC177, ΔramRΔ36 (ΔramRΔompK36 mutant)
[25] = DHA-1-AmpR on pACYC177, WT (NVT1001), read-out: MIC
[26] = DHA-1-AmpR on pACYC177, Δ35 (ΔompK35 mutant)
[27] = DHA-1-AmpR on pACYC177, Δ35/36 (ΔompK35/36 mutant)
[28] = DHA-1-AmpR on pACYC177, Δ36 (ΔompK36 mutant)
[29] = DHA-1-AmpR on pACYC177, ΔramR mutant
[30] = DHA-1-AmpR on pACYC177, ΔramRΔ35 (ΔramRΔompK35 mutant)
[31] = DHA-1-AmpR on pACYC177, ΔramRΔ35/36 (ΔramRΔompK35/36 mutant)
[32] = DHA-1-AmpR on pACYC177, ΔramRΔ36 (ΔramRΔompK36 mutant)
[33] = SHV-12 on pACYC177, WT (NVT1001), read-out: MIC
[34] = SHV-12 on pACYC177, Δ35 (ΔompK35 mutant)
[35] = SHV-12 on pACYC177, Δ35/36 (ΔompK35/36 mutant)
[36] = SHV-12 on pACYC177, Δ36 (ΔompK36 mutant)
[37] = SHV-12 on pACYC177, ΔramR mutant
[38] = SHV-12 on pACYC177, ΔramRΔ35 (ΔramRΔompK35 mutant)
[39] = SHV-12 on pACYC177, ΔramRΔ35/36 (ΔramRΔompK35/36 mutant)
[40] = SHV-12 on pACYC177, ΔramRΔ36 (ΔramRΔompK36 mutant)
[41] = no supplemental plasmid, WT (NVT1001), read-out: MIC
[42] = no supplemental plasmid, Δ35 (ΔompK35 mutant)
[43] = no supplemental plasmid, Δ35/36 (ΔompK35/36 mutant)
[44] = no supplemental plasmid, Δ36 (ΔompK36 mutant)
[45] = no supplemental plasmid, ΔramR mutant
[46] = no supplemental plasmid, ΔramRΔ35 (ΔramRΔompK35 mutant)
[47] = no supplemental plasmid, ΔramRΔ35/36 (ΔramRΔompK35/36 mutant)
[48] = no supplemental plasmid, ΔramRΔ36 (ΔramRΔompK36 mutant)

C[C@H]1[C@H](NC(=O)/C(=N\OC(C)(C)C(=O)O)c2csc(N)n2)C(=O)N1S(=O)(=O)O [Aztreonam]
MIC [1]: 64 mg/L
MIC [2]: 128 mg/L
MIC [3]: 256 mg/L
MIC [4]: 64 mg/L
MIC [5]: 64 mg/L
MIC [6]: 64 mg/L
MIC [7]: 64 mg/L
MIC [8]: 64 mg/L
MIC [9]: 2 mg/L
MIC [10]: 16 mg/L
MIC [11]: 32 mg/L
MIC [12]: 2 mg/L
MIC [13]: 16 mg/L
MIC [14]: 16 mg/L
MIC [15]: 32 mg/L
MIC [16]: 16 mg/L
MIC [17]: 256 mg/L
MIC [18]: > 256 mg/L
MIC [19]: > 256 mg/L
MIC [20]: > 256 mg/L
MIC [21]: > 256 mg/L
MIC [22]: > 256 mg/L
MIC [23]: > 256 mg/L
MIC [24]: > 256 mg/L
MIC [25]: 1 mg/L
MIC [26]: 8 mg/L
MIC [27]: 16 mg/L
MIC [28]: 1 mg/L
MIC [29]: 4 mg/L
MIC [30]: 4 mg/L
MIC [31]: 8 mg/L
MIC [32]: 8 mg/L
MIC [33]: 128 mg/L
MIC [34]: > 256 mg/L
MIC [35]: > 256 mg/L
MIC [36]: 128 mg/L
MIC [37]: > 256 mg/L
MIC [38]: > 256 mg/L
MIC [39]: > 256 mg/L
MIC [40]: > 256 mg/L
MIC [41]: 0.03 mg/L
MIC [42]: 0.25 mg/L
MIC [43]: 0.5 mg/L
MIC [44]: 0.06 mg/L
MIC [45]: 0.5 mg/L
MIC [46]: 0.5 mg/L
MIC [47]: 1 mg/L
MIC [48]: 1 mg/L

CO/N=C(\C(=O)N[C@@H]1C(=O)N2C(C(=O)O)=C(COC(C)=O)CS[C@H]12)c1csc(N)n1 [Cefotaxime]
MIC [1]: 64 mg/L
MIC [2]: 128 mg/L
MIC [3]: > 256 mg/L
MIC [4]: > 256 mg/L
MIC [5]: 128 mg/L
MIC [6]: 128 mg/L
MIC [7]: > 256 mg/L
MIC [8]: > 256 mg/L
MIC [9]: 64 mg/L
MIC [10]: 128 mg/L
MIC [11]: > 256 mg/L
MIC [12]: > 256 mg/L
MIC [13]: 128 mg/L
MIC [14]: 128 mg/L
MIC [15]: > 256 mg/L
MIC [16]: > 256 mg/L
MIC [17]: > 256 mg/L
MIC [18]: > 256 mg/L
MIC [19]: > 256 mg/L
MIC [20]: > 256 mg/L
MIC [21]: > 256 mg/L
MIC [22]: > 256 mg/L
MIC [23]: > 256 mg/L
MIC [24]: > 256 mg/L
MIC [25]: 8 mg/L
MIC [26]: 16 mg/L
MIC [27]: 64 mg/L
MIC [28]: 16 mg/L
MIC [29]: 16 mg/L
MIC [30]: 16 mg/L
MIC [31]: 64 mg/L
MIC [32]: 64 mg/L
MIC [33]: 32 mg/L
MIC [34]: 32 mg/L
MIC [35]: > 256 mg/L
MIC [36]: 32 mg/L
MIC [37]: 64 mg/L
MIC [38]: 64 mg/L
MIC [39]: 256 mg/L
MIC [40]: 256 mg/L
MIC [41]: 0.06 mg/L
MIC [42]: 0.125 mg/L
MIC [43]: 2 mg/L
MIC [44]: 0.25 mg/L
MIC [45]: 1 mg/L
MIC [46]: 1 mg/L
MIC [47]: 4 mg/L
MIC [48]: 4 mg/L

CO[C@@]1(NC(=O)Cc2cccs2)C(=O)N2C(C(=O)O)=C(COC(N)=O)CS[C@@H]21 [Cefoxitin]
MIC [1]: > 256 mg/L
MIC [2]: > 256 mg/L
MIC [3]: > 256 mg/L
MIC [4]: > 256 mg/L
MIC [5]: > 256 mg/L
MIC [6]: > 256 mg/L
MIC [7]: > 256 mg/L
MIC [8]: > 256 mg/L
MIC [9]: 4 mg/L
MIC [10]: 8 mg/L
MIC [11]: 64 mg/L
MIC [12]: 16 mg/L
MIC [13]: 64 mg/L
MIC [14]: 64 mg/L
MIC [15]: > 256 mg/L
MIC [16]: > 256 mg/L
MIC [17]: 4 mg/L
MIC [18]: 8 mg/L
MIC [19]: 64 mg/L
MIC [20]: 16 mg/L
MIC [21]: 64 mg/L
MIC [22]: 64 mg/L
MIC [23]: > 256 mg/L
MIC [24]: > 256 mg/L
MIC [25]: > 256 mg/L
MIC [26]: > 256 mg/L
MIC [27]: > 256 mg/L
MIC [28]: > 256 mg/L
MIC [29]: > 256 mg/L
MIC [30]: > 256 mg/L
MIC [31]: > 256 mg/L
MIC [32]: > 256 mg/L
MIC [33]: 4 mg/L
MIC [34]: 8 mg/L
MIC [35]: 128 mg/L
MIC [36]: 16 mg/L
MIC [37]: 64 mg/L
MIC [38]: 64 mg/L
MIC [39]: > 256 mg/L
MIC [40]: > 256 mg/L
MIC [41]: 4 mg/L
MIC [42]: 4 mg/L
MIC [43]: 128 mg/L
MIC [44]: 16 mg/L
MIC [45]: 64 mg/L
MIC [46]: 64 mg/L
MIC [47]: > 256 mg/L
MIC [48]: > 256 mg/L
effects on the MIC (production of ESBLs tested alone): no significant (≥4-fold) effects

CCO/N=C(\C(=O)N[C@@H]1C(=O)N2C(C(=O)[O-])=C(Sc3nc(-c4cc[n+](C)cc4)cs3)CS[C@H]12)c1nsc(N)n1 [Ceftaroline]
MIC [1]: 64 mg/L
MIC [2]: 64 mg/L
MIC [3]: > 256 mg/L
MIC [4]: 256 mg/L
MIC [5]: 64 mg/L
MIC [6]: 64 mg/L
MIC [7]: 128 mg/L
MIC [8]: 256 mg/L
MIC [9]: 128 mg/L
MIC [10]: > 256 mg/L
MIC [11]: > 256 mg/L
MIC [12]: > 256 mg/L
MIC [13]: > 256 mg/L
MIC [14]: > 256 mg/L
MIC [15]: > 256 mg/L
MIC [16]: > 256 mg/L
MIC [17]: > 256 mg/L
MIC [18]: > 256 mg/L
MIC [19]: > 256 mg/L
MIC [20]: > 256 mg/L
MIC [21]: > 256 mg/L
MIC [22]: > 256 mg/L
MIC [23]: > 256 mg/L
MIC [24]: > 256 mg/L
MIC [25]: 8 mg/L
MIC [26]: 8 mg/L
MIC [27]: 16 mg/L
MIC [28]: 8 mg/L
MIC [29]: 8 mg/L
MIC [30]: 8 mg/L
MIC [31]: 16 mg/L
MIC [32]: 16 mg/L
MIC [33]: 16 mg/L
MIC [34]: 16 mg/L
MIC [35]: 64 mg/L
MIC [36]: 16 mg/L
MIC [37]: 16 mg/L
MIC [38]: 16 mg/L
MIC [39]: 32 mg/L
MIC [40]: 32 mg/L
MIC [41]: 0.25 mg/L
MIC [42]: 0.25 mg/L
MIC [43]: 1 mg/L
MIC [44]: 0.5 mg/L
MIC [45]: 1 mg/L
MIC [46]: 1 mg/L
MIC [47]: 4 mg/L
MIC [48]: 4 mg/L
